US20090118276A1, “THIENOPYRIMIDINES, THIENOPYRIDINES, AND PYRROLOPYRIMIDINES AS B-RAF INHIBITORS” (priority 2007, published 2009)
pIC50: −log10 of the molar value.

target: T1, Flag/GST-tagged recombinant human B-Raf (Homo sapiens, UniProt P15056); assay: B-Raf Kinase to MEK1 ELISA; type: biochemical; details: not given
T1 construct: Flag; GST; made in house; host or cells: Sf9 insect cells (B-Raf); E. coli (MEK1-GST)
Procedure: B-Raf Kinase to MEK1 ELISA
B-Raf1 Kinase Assay Procedure: B-Raf-1 is used to phosphorylate GST-MEK1.
B-Raf Assay Stock Solutions:
1. Assay Dilution Buffer (ADB): 20 mM MOPS, pH 7.2, 25 mM β-glycerol phosphate, 5 mM EGTA, 1 mM sodium orthovanadate, 1 mM dithiothreitol, 0.01% Triton X-100.
2. Magnesium/ATP Cocktail: ADB solution (minus Triton X-100) plus 200 μM cold ATP and 40 mM magnesium chloride.
4. Active Kinase: Active B-Raf: used at 0.2 nM per assay point.
8. Anti pMEK Ab (Upstate)
9. Anti-rabbit Ab/Europium conjugate (Wallac)
1. Add 25 μl of ADB containing B-Raf and Mek per assay (i.e. per well of a 96 well plate)
2. Add 25 μl of 0.2 mM ATP and 40 mM magnesium chloride in Magnesium/ATP Cocktail.
3. Incubate for 45 minutes at RT with occasional shaking.
4. Transfer this mixture to an anti-GST Ab coated 96 well plate (Nunc Immunosorb plates coated o/n with a-GST. Plate freshly washed 3× with TBS-T before use.
5. Incubate o/n at 30° C. in cold room.
6. Wash 3× with TBST, add Anti-Phospho MEK1 (1:1000, dilution depends upon lot)
7. Incubate for 60 minutes at RT in a shaking incubator
8. Wash 3× with TBST, add Anti-rabbit Ab/Europium conjugate (Wallac) (1:500, dilution depends upon lot)
9. Incubate for 60 minutes at RT on a platform shaker.
10. Wash plate 3× with TBS-T
11. Add 100 μl of Wallac Delfia Enhancement Solution and shake for 10 minutes.
12. Read plates in Wallac Victor model Plate Reader.
13. Collect data analyze in Excel for single point and IC50 determinations.
The % inhibition was determined for each compound concentration.

T1 sequence (P15056 whole entry): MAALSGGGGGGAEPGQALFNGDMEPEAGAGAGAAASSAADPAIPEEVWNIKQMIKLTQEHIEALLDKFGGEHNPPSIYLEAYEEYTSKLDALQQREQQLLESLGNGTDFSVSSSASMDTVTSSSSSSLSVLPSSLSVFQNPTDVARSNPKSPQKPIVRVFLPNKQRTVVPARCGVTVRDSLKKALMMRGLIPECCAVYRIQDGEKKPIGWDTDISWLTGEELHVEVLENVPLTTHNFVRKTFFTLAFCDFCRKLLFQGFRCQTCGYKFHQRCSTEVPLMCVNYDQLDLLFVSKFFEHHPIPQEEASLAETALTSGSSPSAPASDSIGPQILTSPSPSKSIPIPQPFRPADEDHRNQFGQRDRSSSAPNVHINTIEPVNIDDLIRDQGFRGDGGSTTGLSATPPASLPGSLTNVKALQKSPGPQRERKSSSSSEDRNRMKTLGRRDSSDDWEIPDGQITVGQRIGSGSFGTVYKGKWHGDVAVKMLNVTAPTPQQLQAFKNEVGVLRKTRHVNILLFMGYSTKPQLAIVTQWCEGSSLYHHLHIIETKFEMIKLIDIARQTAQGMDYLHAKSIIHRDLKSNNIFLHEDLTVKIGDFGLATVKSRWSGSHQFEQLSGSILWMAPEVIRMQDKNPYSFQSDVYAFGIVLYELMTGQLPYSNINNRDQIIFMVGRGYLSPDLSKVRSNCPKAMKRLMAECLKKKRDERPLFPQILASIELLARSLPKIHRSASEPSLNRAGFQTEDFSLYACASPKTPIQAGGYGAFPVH

Point of comparison: `O=C(Nc1cccc(Cl)c1)Nc1cccc(-c2ncnc3sc(-c4ccncc4)cc23)c1` [Compound 45, N-(3-chlorophenyl)-N′-[3-(6-pyridin-4-ylthieno[2,3-d]pyrimidin-4-yl)phenyl]urea], pIC50 5.06. Against it:
- O=C(Nc1cccc(-c2ncnc3c2ccn3Cc2ccncc2)c1)c1cccc(C(F)(F)F)c1 [Compound 98, N-{3-[7-(pyridin-4-ylmethyl)-7H-pyrrolo[2,3-d]pyrimidin-4-yl]phenyl}-3-(trifluoromethyl)benzamide] — 0.93 log units higher, 5.99
- O=C(Nc1cccc(-c2ncnc3sc(-c4ccncc4)cc23)c1)c1ccc(F)c(C(F)(F)F)c1 [Compound 38, 4-fluoro-N-[3-(6-pyridin-4-ylthieno[2,3-d]pyrimidin-4-yl)phenyl]-3-(trifluoromethyl)benzamide] — 1.46 log units higher, 6.52
- O=C(Nc1ccc(Cl)cc1)Nc1cccc(-c2ncnc3sc(-c4ccncc4)cc23)c1 [Compound 46, N-(4-chlorophenyl)-N′-[3-(6-pyridin-4-ylthieno[2,3-d]pyrimidin-4-yl)phenyl]urea] — 0.85 log units higher, 5.91
- Cc1ccc(NC(=O)Nc2cccc(-c3ncnc4sc(-c5ccncc5)cc34)c2)cc1C [Compound 44, N-(3,4-dimethylphenyl)-N′-[3-(6-pyridin-4-ylthieno[2,3-d]pyrimidin-4-yl)phenyl]urea] — 0.76 log units higher, 5.82
- COc1ccc(-n2ccc3c(-c4cccc(NC(=O)c5cccc(C(F)(F)F)c5)c4)ncnc32)cc1 [Compound 103, N-{3-[7-(4-methoxyphenyl)-7H-pyrrolo[2,3-d]pyrimidin-4-yl]phenyl}-3-(trifluoromethyl)benzamide] — within 0.2 log units, 5.24
- O=C(Nc1cccc(-c2ncnc3c2ccn3-c2ccc(CN3CCNCC3)cc2)c1)c1cccc(C(F)(F)F)c1 [Compound 112, N-(3-{7-[4-(piperazin-1-ylmethyl)phenyl]-7H-pyrrolo[2,3-d]pyrimidin-4-yl}phenyl)-3-(trifluoromethyl)benzamide] — 1.66 log units higher, 6.72
- O=C(Nc1cccc(-c2ncnc3sc(-c4ccncc4)cc23)c1)Nc1ccc(Cl)c(C(F)(F)F)c1 [Compound 39, N-[4-chloro-3-(trifluoromethyl)phenyl]-N′-[3-(6-pyridin-4-ylthieno[2,3-d]pyrimidin-4-yl)phenyl]urea] — 0.79 log units higher, 5.85
- COc1ccc(C(=O)Nc2cccc(-c3c(C#N)cnc4cc(-c5ccncc5)sc34)c2)cc1C(F)(F)F [Compound 7, N-[3-(6-cyano-2-pyridin-4-ylthieno[3,2-b]pyridin-7-yl)phenyl]-4-methoxy-3-(trifluoromethyl)benzamide] — within 0.2 log units, 5.02
- CN(C)CCCn1c(-c2ccncc2)cc2c(-c3cccc(NC(=O)c4cccc(C(F)(F)F)c4)c3)ncnc21 [Compound 109, N-(3-{7-[3-(dimethylamino)propyl]-6-pyridin-4-yl-7H-pyrrolo[2,3-d]pyrimidin-4-yl}phenyl)-3-(trifluoromethyl)benzamide] — 2.12 log units higher, 7.18
- O=C(Nc1cccc(-c2ncnc3sc(-c4ccnc(NCCN5CCOCC5)c4)cc23)c1)c1cccc(C(F)(F)F)c1 [Compound 86, N-[3-(6-{2-[(2-morpholin-4-ylethyl)amino]pyridin-4-yl}thieno[2,3-d]pyrimidin-4-yl)phenyl]-3-(trifluoromethyl)benzamide] — 1.78 log units higher, 6.84
- O=C(Nc1cccc(-c2ncnc3cc(-c4ccncc4)sc23)c1)c1cccc(C(F)(F)F)c1 [Compound 6, N-[3-(6-pyridin-4-ylthieno[3,2-d]pyrimidin-4-yl)phenyl]-3-(trifluoromethyl)benzamide] — 1.21 log units higher, 6.27
- O=C(Nc1cccc(-c2ncnc3sc(-c4ccncc4)cc23)c1)Nc1cccc(C(F)(F)F)c1 [Compound 41, N-[3-(6-pyridin-4-ylthieno[2,3-d]pyrimidin-4-yl)phenyl]-N′-[3-(trifluoromethyl)phenyl]urea] — 0.69 log units higher, 5.75
- COc1ccc(C(=O)Nc2cccc(-c3ncnc4sc(-c5ccncc5)cc34)c2)cc1C(F)(F)F [Compound 35, 4-methoxy-N-[3-(6-pyridin-4-ylthieno[2,3-d]pyrimidin-4-yl)phenyl]-3-(trifluoromethyl)benzamide] — 0.40 log units higher, 5.46
- CN(C)c1ccc(-n2ccc3c(-c4cccc(NC(=O)c5cccc(C(F)(F)F)c5)c4)ncnc32)cc1 [Compound 107, N-(3-{7-[4-(dimethylamino)phenyl]-7H-pyrrolo[2,3-d]pyrimidin-4-yl}phenyl)-3-(trifluoromethyl)benzamide] — within 0.2 log units, 5.18
- N#Cc1ccccc1Cn1ccc2c(-c3cccc(NC(=O)c4cccc(C(F)(F)F)c4)c3)ncnc21 [Compound 94, N-{3-[7-(2-cyanobenzyl)-7H-pyrrolo[2,3-d]pyrimidin-4-yl]phenyl}-3-(trifluoromethyl)benzamide] — 0.55 log units higher, 5.61
- O=C(Nc1cccc(-c2ncnc3sc(-c4ccncc4)cc23)c1)Nc1ccc(F)c(C(F)(F)F)c1 [Compound 36, N-[4-fluoro-3-(trifluoromethyl)phenyl]-N′-[3-(6-pyridin-4-ylthieno[2,3-d]pyrimidin-4-yl)phenyl]urea] — 0.57 log units higher, 5.63
- O=C(Nc1cccc(-c2ncnc3sc(-c4ccncc4)cc23)c1)c1cccc(C(F)(F)F)c1 [Compound 42, N-[3-(6-pyridin-4-ylthieno[2,3-d]pyrimidin-4-yl)phenyl]-3-(trifluoromethyl)benzamide] — 2.04 log units higher, 7.10

same assay, conditions: phosphorylation of GST-MEK1 by B-Raf (0.2 nM), phospho-MEK1 antibody/Europium readout; compound concentrations from 1 μM to 3 nM or 0.1 μM to 300 pm in half log dilutions; read-out: IC50

Point of comparison: `N#Cc1ccc(-c2cc3c(-c4cccc(NC(=O)c5cccc(C(F)(F)F)c5)c4)ncnc3s2)cc1` [Compound 77, N-{3-[6-(4-cyanophenyl)thieno[2,3-d]pyrimidin-4-yl]phenyl}-3-(trifluoromethyl)benzamide], pIC50 5.91. Against it:
- O=C(Nc1cccc(-c2ncnc3sc(-c4cccnc4)cc23)c1)c1cccc(C(F)(F)F)c1 [Compound 75, N-[3-(6-pyridin-3-ylthieno[2,3-d]pyrimidin-4-yl)phenyl]-3-(trifluoromethyl)benzamide] — within 0.2 log units, 5.95
- O=C(Nc1cccc(-c2ncnc3sc(-c4ccnc(NCCCn5ccnc5)c4)cc23)c1)c1cccc(C(F)(F)F)c1 [Compound 87, N-{3-[6-(2-{[3-(1H-imidazol-1-yl)propyl]amino}pyridin-4-yl)thieno[2,3-d]pyrimidin-4-yl]phenyl}-3-(trifluoromethyl)benzamide] — 0.89 log units higher, 6.80
- CC(=O)Nc1cccc(-c2cc3c(-c4cccc(NC(=O)c5cccc(C(F)(F)F)c5)c4)ncnc3s2)c1 [Compound 72, N-(3-{6-[3-(acetylamino)phenyl]thieno[2,3-d]pyrimidin-4-yl}phenyl)-3-(trifluoromethyl)benzamide] — 0.23 log units lower, 5.68
- O=C(Nc1cccc(-c2ncnc3sc(C4=CCNCC4)cc23)c1)c1cccc(C(F)(F)F)c1 [Compound 67, N-{3-[6-(1,2,3,6-tetrahydropyridin-4-yl)thieno[2,3-d]pyrimidin-4-yl]phenyl}-3-(trifluoromethyl)benzamide] — 0.31 log units lower, 5.60
- CC(=O)Nc1ccc(-c2cc3c(-c4cccc(NC(=O)c5cccc(C(F)(F)F)c5)c4)ncnc3s2)cc1 [Compound 68, N-(3-{6-[4-(acetylamino)phenyl]thieno[2,3-d]pyrimidin-4-yl}phenyl)-3-(trifluoromethyl)benzamide] — within 0.2 log units, 6.06
- CNC(=O)c1cc(-c2cc3c(-c4cccc(NC(=O)c5cccc(C(F)(F)F)c5)c4)ncnc3s2)ccn1 [Compound 85, N-methyl-4-[4-(3-{[3-(trifluoromethyl)benzoyl]amino}phenyl)thieno[2,3-d]pyrimidin-6-yl]pyridine-2-carboxamide] — 0.23 log units higher, 6.14
- O=C(Nc1cccc(-c2ncnc3sc(-c4ccc(Cl)cc4)cc23)c1)c1cccc(C(F)(F)F)c1 [Compound 79, N-{3-[6-(4-chlorophenyl)thieno[2,3-d]pyrimidin-4-yl]phenyl}-3-(trifluoromethyl)benzamide] — 0.58 log units lower, 5.33
- CC(=O)c1ccc(-c2cc3c(-c4cccc(NC(=O)c5cccc(C(F)(F)F)c5)c4)ncnc3s2)cc1 [Compound 80, N-{3-[6-(4-acetylphenyl)thieno[2,3-d]pyrimidin-4-yl]phenyl}-3-(trifluoromethyl)benzamide] — 0.35 log units lower, 5.56
- N#Cc1cc2c(-c3cccc(NC(=O)c4cccc(C(F)(F)F)c4)c3)ncnc2s1 [Compound 88, N-[3-(6-cyanothieno[2,3-d]pyrimidin-4-yl)phenyl]-3-(trifluoromethyl)benzamide] — 0.69 log units lower, 5.22
- CC(=O)c1cccc(-c2cc3c(-c4cccc(NC(=O)c5cccc(C(F)(F)F)c5)c4)ncnc3s2)c1 [Compound 81, N-{3-[6-(3-acetylphenyl)thieno[2,3-d]pyrimidin-4-yl]phenyl}-3-(trifluoromethyl)benzamide] — 0.42 log units lower, 5.49
- N#Cc1cnc2cc(-c3ccncc3)sc2c1-c1cccc(NC(=O)c2cccc(C(F)(F)F)c2)c1 [Compound 5, N-[3-(6-cyano-2-pyridin-4-ylthieno[3,2-b]pyridin-7-yl)phenyl]-3-(trifluoromethyl)benzamide] — 0.68 log units lower, 5.23
